In ChEMBL document CHEMBL4825741, “Novel Histone Acetyltransferase (HAT) Inhibitors for Treating Diseases” (ACS Med Chem Lett, 2021):

Assay: Inhibition of p300/CBP HAT (unknown origin) by scintillation proximity assay
Set-up: species or system Homo sapiens

Row | Structure (SMILES) | IC50 [nM]
1 | CC(=O)N1CC(Oc2ccc(NC(=O)[C@@H](NC[C@@H](C)c3ccc(C#N)cc3)c3ccccc3)nc2)C1 | 14
2 | Cn1cc(COc2ccc(NC(=O)[C@@H](NCCc3ccc(Cl)cc3)c3ccccc3)nc2)cn1 | 16.8
3 | CC(=O)N1CC(Oc2ccc(NC(=O)[C@H](NCC(C)c3ccc(C#N)cc3)c3cccc(F)c3)nc2)C1 (stereo partly specified) | 23.3
4 | CC(=O)N1CC(Oc2ccc(NC(=O)[C@H](NC[C@@H](C)c3ccc(C#N)cc3)c3ccccc3)nc2)C1 | 21.2
5 | CC(CN[C@H](C(=O)Nc1ccc(OC2CCN(C(=O)C3CC3)CC2)cn1)c1ccccc1)c1ccc(C#N)cc1 (stereo partly specified) | 26.7
6 | CN1CCC(Oc2ccc(NC(=O)[C@H](NCCc3ccc(Cl)cc3)c3ccccc3)nc2)CC1 | 26.6
